According to patent US6218393A, “Anthranilic acid derivatives as multi drug resistance modulators” (priority 1997, dated 2001):

Experiments:
[1] = test system: AR 1.0 cells; assay: Potentiation index with doxorubicin titration; format: cell-based, mouse; conditions: for Potentiation Index at RMA concentration 50 nM: Table C1, RMA 50 nM; for Potentiation Index at RMA concentration 20 nM: Table C1, RMA 20 nM; for Potentiation Index at RMA concentration 300 nM: Table C2, RMA 300 nM; for Potentiation Index at RMA concentration 500 nM: Table C2, RMA 500 nM
Method in brief: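 Doxorubicin IC50 in AR 1.0 cells (MDR subline of EMT6 mouse mammary carcinoma) determined by sulphorhodamine B after 4-day culture across 0.263 nM-17.24 μM, with and without a fixed dose of test compound; their ratio gives the PI.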

[2] = test system: AR 1.0 cells; assay: Drug accumulation assay: daunorubicin accumulation in AR 1.0 cells; format: cell-based; conditions: Mus musculus, 100% = accumulation with verapamil 100 μM, 1 hr, 37° C.
Method in brief: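 Daunorubicin accumulation was measured in cells plated 48 h beforehand. These were AR 1.0 cells, an MDR-resistant derivative of mouse EMT6 mammary carcinoma, cultured at 37 °C in 5% CO2 in RPMI 1640 plus 10% foetal calf serum and 2 mM glutamine.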

[3] = test system: H69/LX4 cells; assay: Potentiation of toxicity of various cytotoxic agents, H69/LX4 cell line; format: cell-based; conditions: Taxol; for Potentiation Index at RMA concentration 10 nM: RMA 10 nM; for Potentiation Index at RMA concentration 30 nM: RMA 30 nM; for Potentiation Index at RMA concentration 50 nM: RMA 50 nM
Description: (b) Cells were cultured for four days with a titration of doxorubicin (0.263 nM-17.24 μM) in the presence of a fixed concentration of each compound. Proliferation was quantified as described by Skehen et al, loc cit. The IC50 (concentration required to reduce proliferation to 50% of the untreated controls) for doxorubicin alone and with each compound were derived and used to calculate the potentiation index (PI): [formula]
The potentiation indices of a selection of compounds using a variety of cell lines and a variety of cytotoxics other than doxorubicin were measured following the protocol described above for doxorubicin, and the results are shown in Table D.

[4] = test system: AR 1.0 cells; assay: Potentiation of doxorubicin toxicity: proliferation assay (sulphorhodamine B); format: cell-based, mouse
Description: (a) Selected compounds of formula (I) were examined for their ability to potentiate the toxicity of doxorubicin in AR 1.0 cells.

[5] = Mus musculus, 96 h, compound alone, four day proliferation, read-out: Compound Toxicity (IC50)
[6] = with fixed doxorubicin 0.34 μm, four days, 5760 min, read-out: Toxicity with Cytotoxic Agent (IC50)

COc1ccc(CN(C)CCc2ccc(NC(=O)c3ccccc3NC(=O)c3cnc4ccccc4n3)cc2)cc1OC [compound 9612, Quinoxaline-2-carboxylic acid [2-(4-{2-[(3,4-dimethoxy-benzyl)-methyl-amino]-ethyl}-phenylcarbamoyl)-phenyl]-amide]
Potentiation Index at RMA concentration 10 nM ([1]; Table C1, RMA 10 nM): 11
Potentiation Index at RMA concentration 30 nM ([1]; Table C1, RMA 30 nM): 95
Potentiation Index at RMA concentration 50 nM [1]: 149
Potentiation Index at RMA concentration 100 nM ([1]; Table C1, RMA 100 nM): 171
IC50 [2]: 0.087 µM
Potentiation Index at RMA concentration 10 nM [3]: 51
Potentiation Index at RMA concentration 30 nM [3]: 894
Potentiation Index at RMA concentration 50 nM [3]: 1329

COc1ccc(CN(C)CCc2ccc(NC(=O)c3ccccc3NC(=O)c3cnc4ccccc4c3)cc2)cc1OC [compound 9613, Quinoline-3-carboxylic acid [2-(4-{2-[(3,4-dimethoxy-benzyl)-methyl-amino]-ethyl}-phenylcarbamoyl)-phenyl]-amide]
Potentiation Index at RMA concentration 10 nM ([1]; Table C1, RMA 10 nM): 3
Potentiation Index at RMA concentration 30 nM ([1]; Table C1, RMA 30 nM): 35
Potentiation Index at RMA concentration 50 nM [1]: 97
Potentiation Index at RMA concentration 100 nM ([1]; Table C1, RMA 100 nM): 168
IC50 [2]: 0.098 µM
Potentiation Index at RMA concentration 10 nM [3]: 2.2
Potentiation Index at RMA concentration 30 nM [3]: 236
Potentiation Index at RMA concentration 50 nM [3]: 877

COc1cc2c(cc1OC)CN(CCc1ccc(NC(=O)c3c(C)csc3NC(=O)c3cnc4ccccc4c3)cc1)CC2 [compound 9609, Quinoline-3-carboxylic acid (3-{4-[2-(6,7-dimethoxy-3,4-dihydro-1H-isoquinolin-2-yl)-ethyl]-phenylcarbamoyl}-4-methyl-thiophen-2-yl)-amide]
Potentiation Index at RMA concentration 10 nM ([1]; Table C1, RMA 10 nM): 1.4
Potentiation Index at RMA concentration 20 nM [1]: 3.4
Potentiation Index at RMA concentration 30 nM ([1]; Table C1, RMA 30 nM): 7.4
Potentiation Index at RMA concentration 50 nM [1]: 19
Potentiation Index at RMA concentration 100 nM ([1]; Table C1, RMA 100 nM): 68
IC50 [2]: 0.431 µM
Potentiation Index at RMA concentration 10 nM [3]: 1
Potentiation Index at RMA concentration 30 nM [3]: 3
Potentiation Index at RMA concentration 50 nM [3]: 9

COc1ccc(CN2CCc3ccc(NC(=O)c4ccccc4NC(=O)c4cnc5ccccc5n4)cc3C2)cc1OC [compound 9614, Quinoxaline-2-carboxylic acid {2-[2-(3,4-dimethoxy-benzyl)-1,2,3,4-tetrahydro-isoquinolin-7-ylcarbamoyl]-phenyl}-amide]
Potentiation Index at RMA concentration 10 nM ([1]; Table C1, RMA 10 nM): 2
Potentiation Index at RMA concentration 30 nM ([1]; Table C1, RMA 30 nM): 9
Potentiation Index at RMA concentration 50 nM [1]: 32
Potentiation Index at RMA concentration 100 nM ([1]; Table C1, RMA 100 nM): 52
IC50 [2]: 0.278 µM
Potentiation Index at RMA concentration 30 nM [3]: 1.1
Potentiation Index at RMA concentration 50 nM [3]: 11

COc1cc2c(cc1OC)CN(CCCc1ccc(NC(=O)c3ccccc3NC(=O)c3cnc4ccccc4n3)cc1)CC2 [compound 9567, Quinoxaline-2-carboxyXic acid (2-{4-[3-(6,7-dimethoxy-3,4-dihydro-1H-isoquinolin-2-yl)-propyl]-phenylcarbamoyl}-phenyl)-amide]
Potentiation Index at RMA concentration 10 nM ([1]; Table C2, RMA 10 nM): 1.7
Potentiation Index at RMA concentration 30 nM ([1]; Table C2, RMA 30 nM): 8
Potentiation Index at RMA concentration 100 nM ([1]; Table C2, RMA 100 nM): 112
IC50 [2]: 0.16 µM
IC50 [4, 5]: 1.7 µM
IC50 [4, 6]: 0.028 µM

COc1cc2c(cc1OC)CN(CCNC(=O)c1ccccc1NC(=O)c1ccc(C3CCCCC3)cc1)CC2 [compound 9331, 2-(4-Cyclohexyl-benzoylamino)-N-[2-(6,7-dimethoxy-3,4-dihydro-1H-isoquinolin-2-yl)-ethyl]-benzamide]
Potentiation Index at RMA concentration 300 nM [1]: 40
Potentiation Index at RMA concentration 500 nM [1]: 120
IC50 [2]: 1.3 µM
IC50 [4, 5]: 7 µM
IC50 [4, 6]: 0.04 µM

COc1cc2c(cc1OC)CN(CCc1ccc(NC(=O)c3ccc(N)cc3NC(=O)c3cnc4ccccc4c3)cc1)CC2 [compound 9589, Quinoline-3-carboxylic acid (2-{4-[2-(6,7-dimethoxy-3,4-dihydro-1H-isoquinolin-2-yl)-ethyl]-phenylcarbamoyl}-5-amino-phenyl)-amide]
Potentiation Index at RMA concentration 10 nM ([1]; Table C2, RMA 10 nM): 1
Potentiation Index at RMA concentration 30 nM ([1]; Table C2, RMA 30 nM): 1
IC50 [2]: 1 µM
IC50 [4, 5]: 36.8 µM

COc1cc2c(cc1OC)CN(CCc1ccc(NC(=O)c3ccccc3NC(=O)c3ccc(C(C)C)cc3)cc1)CC2 [compound 9447, 2-(4-Isopropyl-benzoylamino)-N-{4-[2-(6,7-dimethoxy-3,4-dihydro-1H-isoquinolin-2-yl)-ethyl]-phenyl}-benzamide]
Potentiation Index at RMA concentration 300 nM [1]: 40
Potentiation Index at RMA concentration 500 nM [1]: 340
IC50 [2]: 0.7 µM
IC50 [4, 5]: 6.8 µM
IC50 [4, 6]: 0.065 µM

COc1cc2c(cc1OC)CN(CCc1ccc(NC(=O)c3ccccc3NC(=O)c3ccccc3)cc1)CC2 [compound 9456, 2-Benzoylamino-N-{4-[2-(6,7-dimethoxy-3,4-dihydro-1H-isoquinolin-2-yl)-ethyl]-phenyl}-benzamide]
Potentiation Index at RMA concentration 100 nM ([1]; Table C2, RMA 100 nM): 112
IC50 [2]: 0.3 µM
IC50 [4, 5]: 5 µM

COc1cc2c(cc1OC)CN(CCc1ccc(NC(=O)c3ccccc3NC(=O)c3cccc(Cl)c3)cc1)CC2 [compound 9495, 2-(3-chloro-benzoylamino)-N-{4-[2-(617-dimethoxy-3,4-dihydro-1H-isoquinolin-2-yl)-ethyl]-phenyl}-benzamide]
Potentiation Index at RMA concentration 30 nM ([1]; Table C2, RMA 30 nM): 1.3
Potentiation Index at RMA concentration 100 nM ([1]; Table C2, RMA 100 nM): 15
Potentiation Index at RMA concentration 300 nM [1]: 261
Potentiation Index at RMA concentration 500 nM [1]: 567
IC50 [2]: 0.5 µM
IC50 [4, 5]: 4 µM

COc1cc2c(cc1OC)CN(CCc1ccc(NC(=O)c3cc4c(cc3NC(=O)c3cnc5ccccc5c3)OCO4)cc1)CC2 [compound 9578, Quinoline-3-carboxylic acid (6-{4-[2-(6,7-dimethoxy-3,4-dihydro-1H-isoquinolin-2-yl)-ethyl]-phenylcarbamoyl}-benzo[1,3]dioxoi-5-yl)-amide]
Potentiation Index at RMA concentration 10 nM ([1]; Table C2, RMA 10 nM): 43
Potentiation Index at RMA concentration 30 nM ([1]; Table C2, RMA 30 nM): 188
IC50 [2]: 0.084 µM
IC50 [4, 5]: 0.9 µM

COc1cc2c(cc1OC)CN(CCc1ccc(NC(=O)c3ccccc3NC(=O)c3cccc(F)c3)cc1)CC2 [compound 9500, 2-(3-Fluoro-benzoylamino)-N-{4-[2-(6,7-dimethoxy-3,4-dihydro-1H-isoquinolin-2-yl)-ethyl]-phenyl}-benzamide]
Potentiation Index at RMA concentration 30 nM ([1]; Table C2, RMA 30 nM): 5.5
Potentiation Index at RMA concentration 100 nM ([1]; Table C2, RMA 100 nM): 97
Potentiation Index at RMA concentration 300 nM [1]: 300
IC50 [2]: 0.19 µM
IC50 [4, 5]: 5 µM
IC50 [4, 6]: 0.009 µM

COc1cc2c(cc1OC)CN(CCNC(=O)c1ccccc1NC(=O)c1ccc(C(=O)c3ccccc3)cc1)CC2 [compound 9427, 2-(4-Benzoyl-benzoylamino)-N-[2-(6,7-dimethoxy-3,4-dihydro-1H-isoquinolin-2-yl)-ethyl]-benzamide]
Potentiation Index at RMA concentration 300 nM [1]: 14
Potentiation Index at RMA concentration 500 nM [1]: 32
IC50 [2]: 0.53 µM
IC50 [4, 5]: 10 µM

COc1cc2c(cc1OC)CN(CCc1ccc(NC(=O)c3ccccc3NC(=O)c3ccc(C4CCCCC4)cc3)cc1)CC2 [compound 9461, 2-(4-Cyclohexyl-benzoylamino)-N-{4-[2-(6,7-dimethoxy-3,4-dihydro-1H-isoquinolin-2-yl)-ethyl]-phenyl}-benzamide]
Potentiation Index at RMA concentration 300 nM [1]: 13
Potentiation Index at RMA concentration 500 nM [1]: 30
IC50 [2]: 1.8 µM
IC50 [4, 5]: 7.5 µM
IC50 [4, 6]: 0.3 µM

COc1cc2c(cc1OC)CN(CCc1ccc(NC(=O)c3c(C)csc3NC(=O)c3cnc4ccccc4n3)cc1)CC2 [compound 9608, Quinoxaline-2-carboxylic acid (3-{4-[2-(6,7-dimethoxy-3,4-dihydro-1H-isoquinolin-2-yl)-ethyl]-phenylcarbamoyl}-4-methyl-thiophen-2-yl)-amide]
Potentiation Index at RMA concentration 10 nM ([1]; Table C1, RMA 10 nM): 6.7
Potentiation Index at RMA concentration 20 nM [1]: 31
Potentiation Index at RMA concentration 30 nM ([1]; Table C1, RMA 30 nM): 60
Potentiation Index at RMA concentration 50 nM [1]: 118
Potentiation Index at RMA concentration 100 nM ([1]; Table C1, RMA 100 nM): 178
IC50 [2]: 0.224 µM
Potentiation Index at RMA concentration 10 nM [3]: 1.6
Potentiation Index at RMA concentration 30 nM [3]: 17
Potentiation Index at RMA concentration 50 nM [3]: 130

COc1cc2c(cc1OC)CN(CCc1ccc(NC(=O)c3ccccc3NC(=O)c3ccccc3O)cc1)CC2 [compound 9535]
Potentiation Index at RMA concentration 100 nM ([1]; Table C2, RMA 100 nM): 32
Potentiation Index at RMA concentration 300 nM [1]: 128
IC50 [2]: 0.45 µM
IC50 [4, 5]: 2.6 µM
IC50 [4, 6]: 0.015 µM
